Calls of active or inactive are those of the source. The calls are words filed in the database; no cut-off is given here.
Key:
[1] = target: Sigma non-opioid intracellular receptor 1 (Cavia porcellus, UniProt Q60492); test: Displacement of [3H]-(+)-pentazocine from sigma1 receptor in guinea pig brain membranes incubated for 150 mins by scintillation counting method; assay type: cell membranes
[2] = target: Sigma intracellular receptor 2 (Homo sapiens, UniProt Q5BJF2); test: Displacement of [3H]-DTG from sigma2 receptor (unknown origin) incubated for 120 mins by scintillation counting method
Chain of Sigma intracellular receptor 2 (Q5BJF2 whole entry): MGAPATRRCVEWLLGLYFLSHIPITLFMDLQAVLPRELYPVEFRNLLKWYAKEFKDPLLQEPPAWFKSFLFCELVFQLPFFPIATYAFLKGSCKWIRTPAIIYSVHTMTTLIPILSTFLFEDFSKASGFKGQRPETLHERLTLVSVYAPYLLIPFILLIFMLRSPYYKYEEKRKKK

[3] = Selectivity ratio of Ki for sigma2 receptor (unknown origin) to Ki for sigma1 receptor in guinea pig brain cortex membranes; assay type: cell membranes
[4] = tested on: Mus musculus; test: Analgesic activity in formalin-induced nociception mouse model assessed as decrease in time spent on licking or flinching formalin injected right hind paw during early nociceptive phase at 2.5 to 5 mg/kg, ip administered 15 mins prior to formalin challenge measured at 5 mins interval for 10 mins; assay type: functional, organism-based
[5] = tested on: Mus musculus; test: Analgesic activity in formalin-induced nociception mouse model assessed as decrease in time spent on licking or flinching formalin injected right hind paw during inflammatory phase at 2.5 to 5 mg/kg, ip administered 15 mins prior to formalin challenge measured at 5 mins interval for 10 to 60 mins; assay type: functional, organism-based
[6] = tested on: MCF7; test: Induction of apoptosis in human MCF7 cells assessed as increase in caspase-3 activity at 20 uM incubated for 24 hrs by Ac-DEVD-pNA substrate-based colorimetric assay; assay type: functional, cell-based
[7] = tested on: MCF7; test: Cytotoxicity against human MCF7 cells assessed as reduction in cell viability incubated for 24 hrs by MTT assay; assay type: functional, cell-based; conditions: MCF7, 24 h

Chain of Sigma non-opioid intracellular receptor 1 (Q60492 whole entry): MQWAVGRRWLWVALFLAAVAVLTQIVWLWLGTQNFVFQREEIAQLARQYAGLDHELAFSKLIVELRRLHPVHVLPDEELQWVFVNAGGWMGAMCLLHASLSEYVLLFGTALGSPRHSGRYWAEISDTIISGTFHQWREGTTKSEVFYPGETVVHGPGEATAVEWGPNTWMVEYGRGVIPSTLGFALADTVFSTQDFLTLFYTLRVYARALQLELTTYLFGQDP

Compound	Ki [1] [nM]	Ki [2] [nM]	Ratio Ki [3]	Activity [4]	Activity [5]	Activity [6]	IC50 [7] [nM]
Clc1ccc2sc(SCCN3CCCCCC3)nc2c1	407	> 1000	> 2.4	–	–	–	–
O=c1oc2ccc(Cl)cc2n1CCCCN1CCCCCC1	2.3	3.8	1.6	Active	Active	Active	44800
Clc1ccc2sc(SCCCN3CCCCCC3)nc2c1	1.27	7.9	6.8	inactive	inactive	Active	20500
Clc1ccc2oc(SCCN3CCCCCC3)nc2c1	1.93	87	45	–	–	–	–
O=c1sc2ccc(Cl)cc2n1CCN1CCCCCC1	180	1670	9.3	–	–	–	–
CC[C@H]1C[C@@H]2C[C@H]3c4[nH]c5ccc(OC)cc5c4CC[N@@](C2)[C@@H]13	–	–	–	–	–	Active	29600
Clc1ccc2sc(SCCCCN3CCCCCC3)nc2c1	8.44	21.8	2.6	–	–	–	–
O=c1sc2ccc(Cl)cc2n1CCCCN1CCCCCC1	0.78	7.61	9.7	inactive	Active	Active	27800
O=c1oc2ccc(Cl)cc2n1CCCN1CCCCCC1	6.3	64.1	10.2	–	–	–	–
Clc1ccc2oc(SCCCCN3CCCCCC3)nc2c1	2.4	11	4.6	–	–	–	–
O=C(CCCN1CCC(O)(c2ccc(Cl)cc2)CC1)c1ccc(F)cc1 [HALOPERIDOL]	–	–	–	–	–	Active	20200
O=c1sc2ccc(Cl)cc2n1CCCN1CCCCCC1	7.4	68.8	9.3	–	–	–	–
Clc1ccc2oc(SCCCN3CCCCCC3)nc2c1	2.35	16	6.2	–	–	–	–
O=c1oc2ccc(Cl)cc2n1CCN1CCCCCC1	99	652	6.6	–	–	–	–

Source: ChEMBL document CHEMBL4393688, “Synthesis, in vitro and in vivo characterization of new benzoxazole and benzothiazole-based sigma receptor ligands” (Eur J Med Chem, 2019)
